This test concerns Human Umbilical Vein Endothelial Cells (HUVECs). The test can be described thus: Inhibition against sandwich tube formation by vascular endothelial cells in response to stimulation by VEGF. Type of test: cell-based. The settings on record: HUVEC in collagen gel sandwich, stimulation by VEGF (25 ng/ml VEGF and 10 ng/ml EGF), 4th day, total tube length, read-out: IC50 (concentration required for 50% inhibition of tube formation). An outline of the steps: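 HUVECs were sandwiched between collagen gel layers in serum-free medium with 25 ng/ml VEGF plus 10 ng/ml EGF, with test substance added above the gel at 37 °C. On day 4 tubes were MTT-stained and total tube length measured by image analysis. IC50 is the concentration halving tube length relative to no-compound wells.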
As to `N#CCCCOc1cc2nccc(Oc3ccc(NC(=O)Nc4ccc(F)cc4F)c(F)c3)c2cc1C#N` [Example 55, N-(4-(6-Cyano-7-(3-cyanopropoxy)-4-quinolyl)oxy-2-fluorophenyl)-N′-(2,4-difluorophenyl)urea], the IC50 amounted to 35 nM.

`COCCOc1cc2nccc(Oc3ccc(NC(=O)Nc4ccc(F)cc4)c(F)c3)c2cc1C#N` [Example 100, N-(4-(6-Cyano-7-(2-methoxyethoxy)-4-quinolyl)oxy-2-fluorophenyl)-N′-(4-fluorophenyl)urea]: the IC50 was 6.3 nM.

As to `CCNC(=O)n1ccc2cc(Oc3ccnc4cc(OC)c(C(N)=O)cc34)ccc21` [Example 316, 6-Carbamoyl-4-(1-ethylcarbamoyl-1H-indol-5-yloxy)-7-methoxyquinoline], the IC50 was found to be 1 nM.

As to `NC(=O)c1cc2c(Oc3ccc(NC(=O)NC4CC4)c(F)c3)ccnc2cc1OCCCN1CCOCC1` [Example 374, 4-(4-(Cyclopropylaminocarbonyl)amino-3-fluorophenoxy)-7-(3-(4-morpholino)propoxy)-6-quinolinecarboxamide], the IC50 stood at 3 nM.

As for `COc1cc2nccc(Oc3ccc(NC(=O)NC4CC4)c(Cl)c3)c2cc1C(=O)NCCS(C)(=O)=O` [Example 404, N6-(2-(Methylsulfonyl)ethyl)-4-(3-chloro-4-(((cyclopropylamino)carbonyl)amino)phenoxy)-7-methoxy-6-quinolinecarboxamide], the IC50 is 2.8 nM.

Source of the values: US7253286B2, “Nitrogen-containing aromatic derivatives” (Eisai Co., Ltd, priority 2000, dated 2007).
